Experimental data taken from paper PMC9653409, “Generative deep learning enables the discovery of a potent and selective RIPK1 inhibitor” (Nature Communications, 2022).
Where two headings read alike, the source gives them in different places.

Legend:
Assay in all cases: Kinase inhibitory activity profiling of RI-962@10 µM (406 kinases, Eurofins)
Type in all cases: biochemical
[1] = target: panel of human kinases (kinase named in endpoint) (Homo sapiens, UniProt Q99759); conditions: 10 µM; read-out: Activity (%), MEKK3(h)
Procedure: (§1) In vitro kinase activity assays were conducted through the Kinase Profiling Services provided by Eurofins (Eurofins, France). The protocol for the RIPK1 assay is briefly described as follows (Protocols for other kinases are very similar and can be found in http://www.eurofins.com/pharmadiscovery). RIPK1 kinase was incubated with the test compound in assay buffer containing 8 mM MOPS (pH 7.0), 0.2 mM EDTA, 250 μM […], 10 mM magnesium acetate, and 10 μM [γ-33P]-ATP for 15 min at room temperature. The reaction was initiated by the addition of the Mg/ATP mixture. After incubation for 40 min at room temperature, and the reaction was stopped by the addition of 3% phosphoric acid. A 10 μL portion of the reaction mixture was then spotted onto a P30 filter mat and washed four times for 4 min in 0.425% phosphoric acid and once in methanol prior to drying and scintillation counting.

[2] = target: panel of human kinases (kinase named in endpoint) (Homo sapiens, UniProt P42684); conditions: 10 µM; read-out: Activity (%), Arg(h)
Procedure: as §1

[3] = target: panel of human kinases (kinase named in endpoint) (Homo sapiens, UniProt Q99986); conditions: 10 µM; read-out: Activity (%), VRK1(h)
Procedure: as §1

[4] = target: panel of human kinases (kinase named in endpoint) (Homo sapiens, UniProt Q00535); conditions: 10 µM
Sequence of panel of human kinases (kinase named in endpoint) (Homo sapiens, UniProt Q00535) (Q00535 whole entry): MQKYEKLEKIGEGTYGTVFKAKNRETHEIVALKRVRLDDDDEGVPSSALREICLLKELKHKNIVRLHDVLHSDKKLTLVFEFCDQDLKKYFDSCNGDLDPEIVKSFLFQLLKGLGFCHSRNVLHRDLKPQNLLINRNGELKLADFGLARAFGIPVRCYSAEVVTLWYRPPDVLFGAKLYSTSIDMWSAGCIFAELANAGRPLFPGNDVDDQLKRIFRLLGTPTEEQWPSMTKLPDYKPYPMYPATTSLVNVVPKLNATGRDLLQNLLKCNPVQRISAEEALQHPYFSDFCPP
Procedure: as §1

[5] = target: panel of human kinases (kinase named in endpoint) (Homo sapiens, UniProt Q96GD4); conditions: 10 µM; read-out: Activity (%), Aurora-B(h)
Sequence of panel of human kinases (kinase named in endpoint) (Homo sapiens, UniProt Q96GD4) (Q96GD4 whole entry): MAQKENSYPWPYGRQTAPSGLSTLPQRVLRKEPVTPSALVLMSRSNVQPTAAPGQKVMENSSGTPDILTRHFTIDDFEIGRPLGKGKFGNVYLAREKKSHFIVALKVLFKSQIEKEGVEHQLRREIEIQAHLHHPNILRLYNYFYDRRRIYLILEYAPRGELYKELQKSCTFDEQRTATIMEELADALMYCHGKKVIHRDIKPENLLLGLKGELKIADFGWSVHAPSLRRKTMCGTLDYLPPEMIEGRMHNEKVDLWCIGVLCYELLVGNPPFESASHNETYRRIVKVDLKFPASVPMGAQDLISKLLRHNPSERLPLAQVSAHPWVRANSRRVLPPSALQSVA
Procedure: as §1

[6] = target: panel of human kinases (kinase named in endpoint) (Homo sapiens, UniProt P23443); conditions: 10 µM; read-out: Activity (%), p70S6K(h)
Procedure: as §1

[7] = target: panel of human kinases (kinase named in endpoint) (Homo sapiens, UniProt Q13976); conditions: 10 µM; read-out: Activity (%), PKG1α(h)
Procedure: as §1

[8] = target: panel of human kinases (kinase named in endpoint) (Homo sapiens, UniProt Q96L34); conditions: 10 µM; read-out: Activity (%), MARK4(h)
Procedure: as §1

[9] = target: panel of human kinases (kinase named in endpoint) (Homo sapiens, UniProt Q9HC98); conditions: 10 µM; read-out: Activity (%), NEK6(h)
Procedure: as §1

[10] = target: panel of human kinases (kinase named in endpoint) (Homo sapiens, UniProt O14920); conditions: 10 µM; read-out: Activity (%), IKKβ(h)
Sequence of panel of human kinases (kinase named in endpoint) (Homo sapiens, UniProt O14920) (O14920 whole entry): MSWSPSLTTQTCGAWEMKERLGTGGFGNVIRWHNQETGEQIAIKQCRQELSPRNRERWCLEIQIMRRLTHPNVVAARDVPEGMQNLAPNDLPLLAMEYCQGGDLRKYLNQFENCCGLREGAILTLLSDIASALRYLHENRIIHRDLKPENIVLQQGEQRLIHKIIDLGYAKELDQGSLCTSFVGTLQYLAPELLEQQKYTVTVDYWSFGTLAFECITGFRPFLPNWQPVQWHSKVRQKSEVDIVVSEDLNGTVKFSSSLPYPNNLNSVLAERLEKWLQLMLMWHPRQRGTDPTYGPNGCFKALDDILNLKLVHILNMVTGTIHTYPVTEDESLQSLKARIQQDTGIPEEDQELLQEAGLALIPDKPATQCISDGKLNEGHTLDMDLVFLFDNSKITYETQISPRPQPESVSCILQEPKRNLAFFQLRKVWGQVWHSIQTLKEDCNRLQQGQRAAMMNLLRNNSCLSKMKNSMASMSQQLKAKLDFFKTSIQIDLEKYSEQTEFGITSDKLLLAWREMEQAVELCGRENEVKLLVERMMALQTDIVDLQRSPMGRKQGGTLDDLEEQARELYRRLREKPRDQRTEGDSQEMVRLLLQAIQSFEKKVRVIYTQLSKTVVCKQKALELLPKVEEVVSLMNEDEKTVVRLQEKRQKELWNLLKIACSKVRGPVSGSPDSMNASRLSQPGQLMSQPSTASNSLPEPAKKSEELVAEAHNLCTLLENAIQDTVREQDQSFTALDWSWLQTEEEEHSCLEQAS
Procedure: as §1

[11] = target: panel of human kinases (kinase named in endpoint) (Homo sapiens, UniProt Q9UQ07); conditions: 10 µM; read-out: Activity (%), MOK(h)
Procedure: as §1

[12] = target: panel of human kinases (kinase named in endpoint) (Homo sapiens, UniProt Q9NRH2); conditions: 10 µM; read-out: Activity (%), SNRK(h)
Procedure: as §1

[13] = target: panel of human kinases (kinase named in endpoint) (Homo sapiens, UniProt P51956); conditions: 10 µM; read-out: Activity (%), NEK3(h)
Sequence of panel of human kinases (kinase named in endpoint) (Homo sapiens, UniProt P51956) (P51956 whole entry): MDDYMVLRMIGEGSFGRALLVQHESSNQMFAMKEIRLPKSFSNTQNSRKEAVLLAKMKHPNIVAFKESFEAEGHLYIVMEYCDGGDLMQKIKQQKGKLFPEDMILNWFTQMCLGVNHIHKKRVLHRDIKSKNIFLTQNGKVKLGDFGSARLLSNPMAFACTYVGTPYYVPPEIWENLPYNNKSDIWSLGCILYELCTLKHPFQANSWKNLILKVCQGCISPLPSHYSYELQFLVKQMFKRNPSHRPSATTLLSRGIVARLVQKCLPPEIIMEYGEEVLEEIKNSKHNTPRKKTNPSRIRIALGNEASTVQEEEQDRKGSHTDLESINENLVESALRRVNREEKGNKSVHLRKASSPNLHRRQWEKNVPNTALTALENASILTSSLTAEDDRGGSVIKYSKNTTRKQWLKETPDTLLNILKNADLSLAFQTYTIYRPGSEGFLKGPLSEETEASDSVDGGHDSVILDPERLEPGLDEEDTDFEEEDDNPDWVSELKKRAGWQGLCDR
Procedure: as §1

[14] = target: panel of human kinases (kinase named in endpoint) (Homo sapiens, UniProt P08581, Y1230C); conditions: 10 µM; read-out: Activity (%), Met(Y1248C)(h)
Procedure: as §1

[15] = target: panel of human kinases (kinase named in endpoint) (Homo sapiens, UniProt O75747); conditions: 10 µM; read-out: Activity (%), PI3KC2g(h)
Sequence of panel of human kinases (kinase named in endpoint) (Homo sapiens, UniProt O75747) (O75747 whole entry): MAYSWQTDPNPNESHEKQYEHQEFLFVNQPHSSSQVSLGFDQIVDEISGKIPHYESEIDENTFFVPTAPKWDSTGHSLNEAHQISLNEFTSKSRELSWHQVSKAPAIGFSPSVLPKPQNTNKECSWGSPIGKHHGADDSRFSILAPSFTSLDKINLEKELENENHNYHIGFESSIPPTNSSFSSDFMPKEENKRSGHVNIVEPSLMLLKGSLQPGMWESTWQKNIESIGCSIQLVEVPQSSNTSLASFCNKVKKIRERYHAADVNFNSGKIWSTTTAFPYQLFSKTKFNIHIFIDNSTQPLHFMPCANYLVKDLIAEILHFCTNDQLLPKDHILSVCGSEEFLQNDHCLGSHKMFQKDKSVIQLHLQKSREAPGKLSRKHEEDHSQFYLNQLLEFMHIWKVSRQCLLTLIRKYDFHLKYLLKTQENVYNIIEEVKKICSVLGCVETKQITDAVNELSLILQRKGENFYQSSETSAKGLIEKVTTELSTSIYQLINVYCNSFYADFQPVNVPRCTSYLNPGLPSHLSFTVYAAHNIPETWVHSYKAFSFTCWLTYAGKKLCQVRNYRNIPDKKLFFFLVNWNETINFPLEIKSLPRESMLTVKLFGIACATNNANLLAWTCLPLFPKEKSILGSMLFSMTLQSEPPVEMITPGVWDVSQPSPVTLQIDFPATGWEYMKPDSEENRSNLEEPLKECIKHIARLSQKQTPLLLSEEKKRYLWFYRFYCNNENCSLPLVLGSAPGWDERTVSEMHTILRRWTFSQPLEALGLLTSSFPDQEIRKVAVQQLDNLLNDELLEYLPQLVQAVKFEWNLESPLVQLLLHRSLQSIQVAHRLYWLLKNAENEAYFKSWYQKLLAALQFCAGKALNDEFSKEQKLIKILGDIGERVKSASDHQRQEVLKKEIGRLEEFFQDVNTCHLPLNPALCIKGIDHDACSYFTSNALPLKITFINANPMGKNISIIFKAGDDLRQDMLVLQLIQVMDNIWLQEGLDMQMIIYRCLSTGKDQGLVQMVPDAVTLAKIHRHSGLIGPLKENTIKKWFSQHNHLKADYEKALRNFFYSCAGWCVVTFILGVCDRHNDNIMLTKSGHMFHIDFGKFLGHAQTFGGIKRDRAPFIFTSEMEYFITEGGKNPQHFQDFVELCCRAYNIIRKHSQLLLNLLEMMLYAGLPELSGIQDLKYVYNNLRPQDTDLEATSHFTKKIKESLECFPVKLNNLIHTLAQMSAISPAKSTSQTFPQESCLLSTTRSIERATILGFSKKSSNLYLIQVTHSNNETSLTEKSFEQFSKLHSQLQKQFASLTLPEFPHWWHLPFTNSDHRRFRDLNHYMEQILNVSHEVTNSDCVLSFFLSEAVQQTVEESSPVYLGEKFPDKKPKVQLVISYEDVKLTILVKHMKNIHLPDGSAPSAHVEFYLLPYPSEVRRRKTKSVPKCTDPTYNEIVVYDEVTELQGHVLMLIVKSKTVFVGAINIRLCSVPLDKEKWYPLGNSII
Procedure: as §1

[16] = target: panel of human kinases (kinase named in endpoint) (Homo sapiens, UniProt P42336); conditions: 10 µM
Sequence of panel of human kinases (kinase named in endpoint) (Homo sapiens, UniProt P42336) (P42336 whole entry): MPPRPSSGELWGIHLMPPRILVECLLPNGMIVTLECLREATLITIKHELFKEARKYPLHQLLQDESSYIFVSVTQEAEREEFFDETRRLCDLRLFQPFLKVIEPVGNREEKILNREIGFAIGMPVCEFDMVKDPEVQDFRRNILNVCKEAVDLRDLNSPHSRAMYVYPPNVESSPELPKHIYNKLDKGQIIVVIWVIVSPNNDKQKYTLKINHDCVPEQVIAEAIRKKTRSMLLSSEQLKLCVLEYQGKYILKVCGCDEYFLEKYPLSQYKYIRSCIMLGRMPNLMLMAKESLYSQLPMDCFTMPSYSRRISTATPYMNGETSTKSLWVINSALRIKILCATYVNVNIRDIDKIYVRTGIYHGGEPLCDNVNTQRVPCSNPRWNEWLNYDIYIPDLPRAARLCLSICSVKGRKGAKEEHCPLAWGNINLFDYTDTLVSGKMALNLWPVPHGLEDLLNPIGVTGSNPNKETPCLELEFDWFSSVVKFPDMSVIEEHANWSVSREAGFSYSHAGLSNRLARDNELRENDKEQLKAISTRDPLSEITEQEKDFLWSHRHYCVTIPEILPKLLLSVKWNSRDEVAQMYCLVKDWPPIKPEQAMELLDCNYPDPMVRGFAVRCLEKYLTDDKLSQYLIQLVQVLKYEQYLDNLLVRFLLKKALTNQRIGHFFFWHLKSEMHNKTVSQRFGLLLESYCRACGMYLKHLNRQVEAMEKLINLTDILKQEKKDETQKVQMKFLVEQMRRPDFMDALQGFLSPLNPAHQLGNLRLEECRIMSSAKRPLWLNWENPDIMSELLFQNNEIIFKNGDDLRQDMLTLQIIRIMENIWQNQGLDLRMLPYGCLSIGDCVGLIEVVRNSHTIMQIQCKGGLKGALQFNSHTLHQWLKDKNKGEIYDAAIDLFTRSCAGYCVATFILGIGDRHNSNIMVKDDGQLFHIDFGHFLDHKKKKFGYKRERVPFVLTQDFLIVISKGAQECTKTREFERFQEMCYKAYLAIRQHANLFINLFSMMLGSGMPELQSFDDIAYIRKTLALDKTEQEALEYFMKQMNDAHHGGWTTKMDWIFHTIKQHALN
Procedure: as §1

[17] = target: panel of human kinases (kinase named in endpoint) (Homo sapiens, UniProt Q9Y6E0); conditions: 10 µM; read-out: Activity (%), MST3(h)
Procedure: as §1

[18] = target: panel of human kinases (kinase named in endpoint) (Homo sapiens, UniProt Q9H2K8); conditions: 10 µM; read-out: Activity (%), TAO3(h)
Procedure: as §1

[19] = target: panel of human kinases (kinase named in endpoint) (Homo sapiens, UniProt Q8N4C8); conditions: 10 µM; read-out: Activity (%), MINK(h)
Procedure: as §1

[20] = target: panel of human kinases (kinase named in endpoint) (Homo sapiens, UniProt Q9Y4K4); conditions: 10 µM; read-out: Activity (%), MAP4K5(h)
Procedure: as §1

[21] = target: panel of human kinases (kinase named in endpoint) (Homo sapiens, UniProt P49760); conditions: 10 µM; read-out: Activity (%), CLK2(h)
Procedure: as §1

[22] = target: panel of human kinases (kinase named in endpoint) (Homo sapiens, UniProt P30530); conditions: 10 µM; read-out: Activity (%), Axl(h)
Procedure: as §1

[23] = target: panel of human kinases (kinase named in endpoint) (Homo sapiens, UniProt Q16832); conditions: 10 µM; read-out: Activity (%), DDR2(h)
Procedure: as §1

[24] = target: panel of human kinases (kinase named in endpoint) (Homo sapiens, UniProt Q96PN8); conditions: 10 µM; read-out: Activity (%), TSSK3(h)
Procedure: as §1

[25] = target: panel of human kinases (kinase named in endpoint) (Homo sapiens, UniProt P45983); conditions: 10 µM; read-out: Activity (%), JNK1α1(h)
Sequence of panel of human kinases (kinase named in endpoint) (Homo sapiens, UniProt P45983) (P45983 whole entry): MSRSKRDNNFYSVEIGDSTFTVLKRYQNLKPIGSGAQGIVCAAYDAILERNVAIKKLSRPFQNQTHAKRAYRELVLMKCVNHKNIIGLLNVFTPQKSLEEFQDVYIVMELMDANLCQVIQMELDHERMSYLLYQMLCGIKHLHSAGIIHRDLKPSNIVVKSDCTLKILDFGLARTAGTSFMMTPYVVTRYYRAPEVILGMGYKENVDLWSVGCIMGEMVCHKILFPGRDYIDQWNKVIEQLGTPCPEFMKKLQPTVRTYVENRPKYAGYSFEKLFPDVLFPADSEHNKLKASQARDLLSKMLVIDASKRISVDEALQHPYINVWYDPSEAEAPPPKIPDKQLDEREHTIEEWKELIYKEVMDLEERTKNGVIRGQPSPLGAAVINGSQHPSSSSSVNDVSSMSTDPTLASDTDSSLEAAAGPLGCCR
Procedure: as §1

CC(C)C(=O)Nc1nc2cc(-c3ccc4c(c3)c(C(=O)NC(C)c3ccccc3)cn4C)ccn2n1 (stereo not drawn) [RI-962]
activity at 10 µM [1]: 93% | activity at 10 µM [2]: 106% | activity at 10 µM [3]: 86% | activity at 10 µM ([4]; read-out: Activity (%), CDK5/p25(h)): 92% | activity at 10 µM ([4]; read-out: Activity (%), CDK5/p35(h)): 118% | activity at 10 µM [5]: 119% | activity at 10 µM [6]: 106% | activity at 10 µM [7]: 101% | activity at 10 µM [8]: 102% | activity at 10 µM [9]: 99% | activity at 10 µM [10]: 88% | activity at 10 µM [11]: 88% | activity at 10 µM [12]: 121% | activity at 10 µM [13]: 103% | activity at 10 µM [14]: 116% | activity at 10 µM [15]: 99% | activity at 10 µM ([16]; read-out: Activity (%), PI3 Kinase (p110a/p65a)(h)): 97% | activity at 10 µM ([16]; read-out: Activity (%), PI3 Kinase (p110a/p85a)(h)): 94% | activity at 10 µM [17]: 149% | activity at 10 µM [18]: 86% | activity at 10 µM [19]: 63% | activity at 10 µM [20]: 100% | activity at 10 µM [21]: 94% | activity at 10 µM [22]: 110% | activity at 10 µM [23]: 126% | activity at 10 µM [24]: 94% | activity at 10 µM [25]: 99%
